Experimental data: US8119628B2, “Pyrrolidine fused indolobenzadiazepine HCV NS5B inhibitors” (Bristol-Myers Squibb Company, priority 2008, dated 2012)

Assays:
[1] = test system: HCV replicon cells; assay: HCV FRET assay in HCV replicon cells; format: cell-based; conditions: Hepatitis C virus
Text: FRET Assay Preparation. To perform the HCV FRET screening assay, 96-well cell culture plates were used. The FRET peptide (Anaspec, Inc.) (Taliani et al., Anal. Biochem. 1996, 240, 60-67) contains a fluorescence donor, EDANS, near one end of the peptide and an acceptor, DABCYL, near the other end. The fluorescence of the peptide is quenched by […] resonance energy transfer (RET) between the donor and the acceptor, but as the NS3 protease cleaves the peptide the products are released from RET quenching and the fluorescence of the donor becomes apparent. The assay reagent was made as follows: 5× cell Luciferase cell culture lysis reagent from Promega (#E153A) diluted to 1× with dH2O, NaCl added to 150 mM final, the FRET peptide diluted to 20 uM final from a 2 mM stock.
To prepare plates, HCV replicon cells, with or without a Renilla luciferase reporter gene, were trypsinized and placed into each well of a 96-well plate with titrated test compounds added in columns 3 through 12; columns 1 and 2 contained a control compound (HCV protease inhibitor), and the bottom row contained cells without compound. The plates were then placed in a CO2 incubator at 37° C.
Assays. Subsequent to addition of the test compounds described above (FRET Assay Preparation), at various times the plate was removed and Alamar blue solution (Trek Diagnostics, #00-100) was added per well as a measure of cellular toxicity. After reading in a Cytoflour 4000 instrument (PE Biosystems), plates were rinsed with PBS and then used for FRET assay by the addition of 30 ul of the FRET peptide assay reagent described above (FRET Assay Preparation) per well. The plate was then placed into the Cytoflour 4000 instrument which had been set to 340 excite/490 emission, automatic mode for 20 cycles and the plate read in a kinetic mode. Typically, the signal to noise using an endpoint analysis after the reads was at least three-fold. Alternatively, after Alamar blue reading, plates were rinsed with PBS, 50 ul of DMEM (high glucose) without phenol red was added and plates were then used for luciferase assay using the Promega Dual-Glo Luciferase Assay System.
Compound analysis was determined by quantification of the relative HCV replicon inhibition and the relative cytotoxicity values. To calculate cytoxicity values, the average Alamar Blue fluorescence signals from the control wells were set as 100% non-toxic. The individual signals in each of the compound test wells were then divided by the average control signal and multiplied by 100% to determine […]. To calculate the HCV replicon inhibition values, an average background value was obtained from the two wells containing the highest amount of HCV protease inhibitor at the end of the assay period. These numbers were similar to those obtained from naïve Huh-7 cells.
The background numbers were then subtracted from the average signal obtained from the control wells and this number was used as 100% activity. The individual signals in each of the compound test wells were then divided by the averaged control values after background subtraction and multiplied by 100% to determine percent activity. EC50 values for a protease inhibitor titration were calculated as the concentration which caused a 50% reduction in FRET or luciferase activity. The two numbers generated for the compound plate, percent cytoxicity and percent activity were used to determine compounds of interest for further analysis.

[2] = target: T1, HCV NS5B (Hepatitis C virus genotype 1b, UniProt Q9WMX2); assay: Modified HCV NS5B RdRp enzyme assay (preincubation protocol); format: biochemical; conditions: HCV NS5B RdRp genotype 1b
T1 construct: The protein was expressed with an 18 amino acid C-terminal truncation to enhance the solubility; made in house; host or cells: E. coli BL21(DE3)
Procedure: HCV NS5B RdRp cloning, expression, and purification. The cDNA encoding the NS5B protein of HCV, genotype 1b, was cloned into the pET21a expression vector. The protein was expressed with an 18 amino acid C-terminal truncation to enhance the solubility. The E. coli competent cell line BL21(DE3) was used for expression of the protein. Cultures were grown at 37° C. for ˜4 hours until the cultures reached an optical density of 2.0 at 600 nm. The cultures were cooled to 20° C. and induced with 1 mM IPTG. Fresh ampicillin was added to a final concentration of 50 μg/ml and the cells were grown overnight at 20° C.
Cell pellets (3 L) were lysed for purification to yield 15-24 […] of purified NS5B. The lysis buffer consisted of 20 mM Tris-HCl, pH 7.4, 500 mM NaCl, 0.5% triton X-100, 1 mM DTT, 1 mM EDTA, 20% glycerol, 0.5 mg/ml lysozyme, 10 mM MgCl2, 15 ug/ml deoxyribonuclease I, and Complete TM protease inhibitor tablets (Roche). After addition of the lysis buffer, frozen cell pellets were resuspended using a tissue homogenizer. To reduce the viscosity of the sample, aliquots of the lysate were sonicated on ice using a microtip attached to a Branson sonicator. The sonicated lysate was centrifuged at 100,000×g for 1 hr at 4° C. and filtered through a 0.2 μm filter unit (Corning).
The protein was purified using three sequential chromatography steps: Heparin sepharose CL-6B, polyU sepharose 4B, and Hitrap SP sepharose (Pharmacia). The chromatography buffers were identical to the lysis buffer but contained no lysozyme, deoxyribonuclease I, MgCl2 or protease inhibitor and the NaCl concentration of the buffer was adjusted according to the requirements for charging the protein onto the column. Each column was eluted with a NaCl gradient which varied in length from 5-50 column volumes depending on the column type. After the final chromatography step, the resulting purity of the enzyme is >90% based on SDS-PAGE analysis. The enzyme was aliquoted and stored at −80° C.
Standard HCV NS5B RdRp enzyme assay. HCV RdRp genotype 1b assays were run in a final volume of 60 μl in 96 well plates (Costar 3912). The assay buffer is composed of 20 mM Hepes, pH 7.5, 2.5 mM KCl, 2.5 mM MgCl2, 1 mM DTT, 1.6 U RNAse inhibitor (Promega N2515), 0.1 mg/ml BSA (Promega R3961), and 2% glycerol. All compounds were serially diluted (3-fold) in DMSO and diluted further in water such that the final concentration of DMSO in the assay was 2%. HCV RdRp genotype 1b enzyme was used at a final concentration of 28 nM. A polyA template was used at 6 nM, and a biotinylated oligo-dT12 primer was used at 180 nM final concentration. Template was obtained commercially (Amersham 27-4110). Biotinylated primer was prepared by Sigma Genosys. 3H-UTP was used at 0.6 μCi (0.29 μM total UTP). Reactions were initiated by the addition of enzyme, incubated at 30° C. for 60 min, and stopped by adding 25 μl of 50 mM EDTA containing SPA beads (4 μg/μl, Amersham RPNQ 0007). Plates were read on a Packard Top Count NXT after >1 hr incubation at room temperature.
Modified HCV NS5B RdRp enzyme assay. A modified enzyme assay was performed essentially as described for the standard enzyme assay except for the following: The biotinylated oligo dTl2 primer was precaptured on streptavidin-coated SPA beads by mixing primer and beads in assay buffer and incubating at room temperature for one hour. Unbound primer was removed after centrifugation. The primer-bound beads were resuspended in 20 mM Hepes buffer, pH 7.5 and used in the assay at final concentrations of 20 nM primer and […] beads. Order of addition in the assay: enzyme (14 nM) was added to diluted compound followed by the addition of a mixture of template (0.2 nM), 3H-UTP (0.6 μCi, 0.29 μM), and primer-bound beads, to initiate the reaction; concentrations given are final. Reactions were allowed to proceed for 4 hours at 30° C.
IC50 values for compounds were determined using seven different. […]

T1 sequence (Q9WMX2 2420-2992): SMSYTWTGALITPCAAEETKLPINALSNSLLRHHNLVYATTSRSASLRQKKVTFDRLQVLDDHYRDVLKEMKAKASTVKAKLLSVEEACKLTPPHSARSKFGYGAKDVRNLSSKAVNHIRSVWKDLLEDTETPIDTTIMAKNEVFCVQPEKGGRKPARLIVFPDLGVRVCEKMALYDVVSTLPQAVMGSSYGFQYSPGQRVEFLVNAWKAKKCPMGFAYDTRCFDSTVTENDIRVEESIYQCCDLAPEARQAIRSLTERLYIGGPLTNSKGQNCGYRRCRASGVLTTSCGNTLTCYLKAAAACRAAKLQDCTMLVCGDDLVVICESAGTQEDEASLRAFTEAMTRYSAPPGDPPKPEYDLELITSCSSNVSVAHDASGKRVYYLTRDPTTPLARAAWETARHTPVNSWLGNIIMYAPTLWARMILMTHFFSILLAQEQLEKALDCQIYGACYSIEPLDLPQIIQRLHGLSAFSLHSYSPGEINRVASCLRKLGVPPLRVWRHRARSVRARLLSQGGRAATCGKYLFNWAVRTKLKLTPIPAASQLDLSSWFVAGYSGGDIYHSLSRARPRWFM

Compound	EC50 ([1]; reported as class) [nM]	IC50 ([2]; reported as class) [nM]	EC50 [1] [nM]	IC50 [2] [nM]
COc1ccc2c(c1)C1CN(C(=O)N(C)C)CC1(C(=O)N1C[C@@H](C)O[C@@H](C)C1)Cn1c-2c(C2CCCCC2)c2ccc(C(=O)NS(=O)(=O)N(C)C)cc21 (mixture of isomers) [Example 11, rac-(3aR,14bR)-10-cyclohexyl-3a-(((2S,6R)-2,6-dimethyl-4-morpholinyl)carbonyl)-N^7-(dimethylsulfamoyl)-13-methoxy-N^2,N^2-dimethyl-1,3a,4,14b-tetrahydroindolo[2,1-c]pyrrolo[3,4-d][2]benzazepine-2,7(3H)-dicarboxamide]	20 to 500	20 to 500	–	–
COc1ccc2c(c1)C1CN(C(C)CN(C)C)CC1(C(=O)N1C[C@@H](C)O[C@@H](C)C1)Cn1c-2c(C2CCCCC2)c2ccc(C(=O)NS(=O)(=O)N(C)C)cc21 (mixture of isomers) [Example 12, rac-(3aR,14bR)-10-cyclohexyl-2-(2-(dimethylamino)-1-methylethyl)-3a-(((2S,6R)-2,6-dimethyl-4-morpholinyl)carbonyl)-N-(dimethylsulfamoyl)-13-methoxy-1,2,3,3a,4,14b-hexahydroindolo[2,1-a]pyrrolo[3,4-d][2]benzazepine-7-carboxamide]	20 to 500	20 to 500	–	–
COc1ccc2c(c1)C1CN(C(=O)CN(C)C)CC1(C(=O)N1C[C@@H](C)O[C@@H](C)C1)Cn1c-2c(C2CCCCC2)c2ccc(C(=O)NS(=O)(=O)N(C)C)cc21 (mixture of isomers) [Example 13, rac-(3aR,14bR)-10-Cyclohexyl-2-(N,N-dimethylglycyl)-3a-(((2S,6R)-2,6-dimethyl-4-morpholinyl)carbonyl)-N-(dimethylsulfamoyl)-13-methoxy-1,2,3,3a,4,14b-hexahydroindolo[2,1-a]pyrrolo[3,4-d][2]benzazepine-7-carboxamide]	20 to 500	20 to 500	–	–
COc1ccc2c(c1)C1CN(C(=O)CN(C)C)CC1(C(=O)N(C)C)Cn1c-2c(C2CCCCC2)c2ccc(C(=O)NS(=O)(=O)N(C)C)cc21 (racemic) [Example 14, rac-(3aR,14bR)-10-Cyclohexyl-2-(N,N-dimethylglycyl)-N^7-(dimethylsulfamoyl)-13-methoxy-N^3a,N^3a-dimethyl-1,2,3,14b-tetrahydroindolo[2,1-a]pyrrolo[3,4-d][2]benzazepine-3a,7(4H)-dicarboxamide]	–	–	47	51
COc1ccc2c(c1)C1CN(C(=O)C(=O)N(C)C)CC1(C(=O)N(C)C)Cn1c-2c(C2CCCCC2)c2ccc(C(=O)NS(=O)(=O)N(C)C)cc21 (racemic) [Example 15, rac-(3aR,14bR)-10-Cyclohexyl-2-((dimethylamino)(oxo)acetyl)-N^7-(dimethylsulfamoyl)-13-methoxy-N^3a,N^3a-dimethyl-1,2,3,14b-tetrahydroindolo[2,1-a]pyrrolo[3,4-d][2]benzazepine-3a,7(4H)-dicarboxamide]	20 to 500	20 to 500	–	–
COc1ccc2c(c1)C1CN(C(=O)c3nccn3C)CC1(C(=O)N(C)C)Cn1c-2c(C2CCCCC2)c2ccc(C(=O)NS(=O)(=O)N(C)C)cc21 (racemic) [Example 16, rac-(3aR,14bR)-10-Cyclohexyl-N^7-(dimethylsulfamoyl)-13-methoxy-N^3a,N^3a-dimethyl-2-((1-methyl-1H-imidazol-2-yl)carbonyl)-1,2,3,14b-tetrahydroindolo[2,1-a]pyrrolo[3,4-d][2]benzazepine-3a,7(4H)-dicarboxamide]	20 to 500	20 to 500	–	–
COc1ccc2c(c1)C1CN(C(C)CN(C)C)CC1(C(=O)N(C)C)Cn1c-2c(C2CCCCC2)c2ccc(C(=O)NS(=O)(=O)N(C)C)cc21 (racemic) [Example 17a, rac-(3aR,14bR)-10-cyclohexyl-2-(2-(dimethylamino)-1R-methylethyl)-N^7-(dimethylsulfamoyl)-13-methoxy-N^3a,N^3a-dimethyl-1,2,3,14b-tetrahydroindolo[2,1-a]pyrrolo[3,4-d][2]benzazepine-3a,7(4H)-dicarboxamide]	20 to 500	20 to 500	–	–
COc1ccc2c(c1)C1CN(Cc3cncn3C)CC1(C(=O)N(C)C)Cn1c-2c(C2CCCCC2)c2ccc(C(=O)NS(=O)(=O)N(C)C)cc21 (racemic) [Example 18, rac-(3aR,14bR)-10-Cyclohexyl-N^7-(dimethylsulfamoyl)-13-methoxy-N^3a,N^3a-dimethyl-2-((1-methyl-1H-imidazol-5-yl)methyl)-1,2,3,14b-tetrahydroindolo[2,1-a]pyrrolo[3,4-d][2]benzazepine-3a,7(4H)-dicarboxamide]	20 to 500	20 to 500	–	–
COc1ccc2c(c1)C1CN(C(=O)[C@@H]3CCCN3C)CC1(C(=O)N(C)C)Cn1c-2c(C2CCCCC2)c2ccc(C(=O)NS(=O)(=O)N(C)C)cc21 (mixture of isomers) [Example 19, rac-(3aR,14bR)-10-cyclohexyl-N^7-(dimethylsulfamoyl)-13-methoxy-N^3a,N^3a-dimethyl-2-(1-methyl-L-prolyl)-1,2,3,14b-tetrahydroindolo[2,1-a]pyrrolo[3,4-d][2]benzazepine-3a,7(4H)-dicarboxamide]	–	–	63	61
